Broadly, the IC50 is the concentration that inhibits the measured activity by half.

Molecules are shown by their SMILES. Non-standard residues stand in square brackets, D forms with d. Residues, ends and D or L forms follow the SMILES beside them. *: point of attachment. Cha = N[C@@H](CC1CCCCC1)C(=O)O; dNMeV = CN[C@@H](C(=O)O)C(C)C; Cbz = O=C(OCc1ccccc1)*

Data on 16 molecules can be found in ChEMBL document CHEMBL1147145, “Scaffold targeting drug-resistant colon cancers” (J Med Chem, 2007).

System in one experiment: not listed separately
The experiment can be described thus: Growth inhibition in WS1 cells assessed as inhibition of [3H]thymidine incorporation. The following applies: Homo sapiens. Type of experiment: functional, cell-based. Background: Uptake of a labelled nucleoside into DNA is a usual measure of proliferation.
Turning to `CC(C)C[C@@H]1NC(=O)[C@H](Cc2ccccc2)NC(=O)[C@@H](Cc2ccccc2)N(C)C(=O)[C@H](C(C)C)NC(=O)[C@H](CC(C)C)NC1=O`, the half-inhibitory concentration (IC50) turned out to be 200 µM.
With `CC(C)C[C@@H]1NC(=O)[C@@H](CC(C)C)N(C)C(=O)[C@H](Cc2ccccc2)NC(=O)[C@H](C(C)C)NC(=O)[C@H](C(C)C)NC1=O`, the IC50 turned out to be 200 µM.
Consider `CC(C)C[C@@H]1NC(=O)[C@H](Cc2ccccc2)NC(=O)[C@H](CC(C)C)NC(=O)[C@H](C(C)C)NC(=O)[C@H](CC(C)C)NC1=O` (cyclo(FLLVL)), for which the IC50 amounted to 300 µM.
Still for that read-out and setting: for `CC(C)C[C@@H]1NC(=O)[C@H](Cc2ccccc2)NC(=O)[C@H](CC(C)C)NC(=O)[C@@H](C(C)C)NC(=O)[C@H](CC(C)C)NC1=O` (cyclo(FLL[dV]L)) the value was 20 µM; for `CC(C)C[C@@H]1NC(=O)[C@H](CC(C)C)NC(=O)[C@@H](Cc2ccc(O)cc2)NC(=O)[C@H](CC(C)C)NC(=O)[C@H](C(C)C)NC1=O` (cyclo(LLVL[dY])), 200 µM; for `CC(C)C[C@@H]1NC(=O)[C@H](Cc2ccccc2)NC(=O)[C@H](CC(C)C)NC(=O)[C@@H](C(C)C)N(C)C(=O)[C@H](CC2CCCCC2)NC1=O` (cyclo([Cha][dNMeV]LFL)), 16 µM.
Turning to `O=c1[nH]cc(F)c(=O)[nH]1` [FLUOROURACIL], the IC50 came out at 300 µM.

In the next experiment the test system is HCT-116. The experiment can be described thus: Growth inhibition in HCT116 cells assessed as inhibition of [3H]thymidine incorporation at 1 uM relative to control. Type of experiment: functional. The note with it: Homo sapiens, read-out: TGI.
As for `CC(C)C[C@@H]1NC(=O)[C@H](Cc2ccccc2)NC(=O)[C@H](CC(C)C)NC(=O)[C@H](C(C)C)N(C)C(=O)[C@H](CC(C)C)NC1=O`, the inhibition of growth at 1 µM amounted to 6%.
On the same count and under the same terms, to `CC(C)C[C@@H]1NC(=O)[C@H](Cc2ccccc2)NC(=O)[C@@H](Cc2ccccc2)N(C)C(=O)[C@H](C(C)C)NC(=O)[C@H](CC(C)C)NC1=O` belongs 59%; to `CC(C)C[C@@H]1NC(=O)[C@H](Cc2ccccc2)NC(=O)[C@@H](Cc2ccccc2)NC(=O)[C@H](C(C)C)NC(=O)[C@H](CC(C)C)NC1=O`, 35%; to `CC(C)C[C@@H]1NC(=O)[C@@H](Cc2ccccc2)NC(=O)[C@@H](CC(C)C)NC(=O)[C@@H](C(C)C)N(C)C(=O)[C@H](CC(C)C)NC1=O`, 44%.
`CC(C)C[C@@H]1NC(=O)[C@@H](CC(C)C)N(C)C(=O)[C@H](Cc2ccccc2)NC(=O)[C@H](C(C)C)NC(=O)[C@H](C(C)C)NC1=O`: the inhibition of growth at 1 µM stood at 42%.
Turning to `CC(C)C[C@@H]1NC(=O)[C@H](C(C)C)NC(=O)[C@H](CC(C)C)N(C)C(=O)[C@H](CC(C)C)N(C)C(=O)[C@H](Cc2ccccc2)NC1=O`, the inhibition of growth at 1 µM was 30%.
Consider `CC(C)C[C@@H]1NC(=O)[C@@H](C(C)C)N(C)C(=O)[C@H](CC(C)C)NC(=O)[C@@H](CC(C)C)NC(=O)[C@H](Cc2ccccc2)NC1=O`, for which the inhibition of growth at 1 µM was determined as 0%.
As for `CC(C)C[C@@H]1NC(=O)[C@H](Cc2ccccc2)NC(=O)[C@H](CC(C)C)NC(=O)[C@@H](C(C)C)N(C)C(=O)[C@H](CC(C)C)NC1=O`, the inhibition of growth at 1 µM was 19%.
For `CC(C)C[C@@H]1NC(=O)[C@H](C(C)C)NC(=O)[C@H](CC(C)C)N(C)C(=O)[C@@H](CC(C)C)N(C)C(=O)[C@H](Cc2ccccc2)NC1=O`, the inhibition of growth at 1 µM is 23%.
Same read-out and setting: for `CC(C)C[C@@H]1NC(=O)[C@H](Cc2ccccc2)NC(=O)[C@H](CC(C)C)NC(=O)[C@@H](C(C)C)NC(=O)[C@H](CCCCNC(=O)OCc2ccccc2)NC1=O` (cyclo(FLK(Cbz)[dV]L)) the value was 16%.
`CC(C)C[C@@H]1NC(=O)[C@H](Cc2ccccc2)NC(=O)[C@H](CC(C)C)NC(=O)[C@@H](C(C)C)NC(=O)[C@H](CCCCN)NC1=O` (cyclo(FLK[dV]L)): the inhibition of growth at 1 µM amounted to 11%.
Still for that read-out and setting: to `CC(C)C[C@@H]1NC(=O)[C@H](Cc2ccccc2)NC(=O)[C@H](CC(C)C)NC(=O)[C@H](C(C)C)NC(=O)[C@H](CC(C)C)NC1=O` (cyclo(FLLVL)) belongs 28%; to `CC(C)C[C@@H]1NC(=O)[C@H](Cc2ccccc2)NC(=O)[C@H](CC(C)C)NC(=O)[C@@H](C(C)C)NC(=O)[C@H](CC(C)C)NC1=O` (cyclo(FLL[dV]L)), 48%; to `CC(C)C[C@@H]1NC(=O)[C@H](CC(C)C)NC(=O)[C@@H](Cc2ccc(O)cc2)NC(=O)[C@H](CC(C)C)NC(=O)[C@H](C(C)C)NC1=O` (cyclo(LLVL[dY])), 45%.
Still for that read-out and setting: to `CC(C)C[C@@H]1NC(=O)[C@H](Cc2ccccc2)NC(=O)[C@H](CC(C)C)NC(=O)[C@@H](C(C)C)N(C)C(=O)[C@H](CC2CCCCC2)NC1=O` (cyclo([Cha][dNMeV]LFL)) belongs 48%.

A further experiment relates to HCT-15. Nature of the experiment: Growth inhibition in HCT15 cells assessed as inhibition of [3H]thymidine incorporation at 1 uM relative to control. The class given is functional. The note with it: Homo sapiens, read-out: TGI.
For the molecule `CC(C)C[C@@H]1NC(=O)[C@H](Cc2ccccc2)NC(=O)[C@H](CC(C)C)NC(=O)[C@H](C(C)C)N(C)C(=O)[C@H](CC(C)C)NC1=O`, the inhibition of growth at 1 µM came out at 23%.
The same measure, in the same setting: for `CC(C)C[C@@H]1NC(=O)[C@H](Cc2ccccc2)NC(=O)[C@@H](Cc2ccccc2)N(C)C(=O)[C@H](C(C)C)NC(=O)[C@H](CC(C)C)NC1=O` the value was 57%; for `CC(C)C[C@@H]1NC(=O)[C@H](Cc2ccccc2)NC(=O)[C@@H](Cc2ccccc2)NC(=O)[C@H](C(C)C)NC(=O)[C@H](CC(C)C)NC1=O`, 14%; for `CC(C)C[C@@H]1NC(=O)[C@@H](Cc2ccccc2)NC(=O)[C@@H](CC(C)C)NC(=O)[C@@H](C(C)C)N(C)C(=O)[C@H](CC(C)C)NC1=O`, 35%.
In the case of `CC(C)C[C@@H]1NC(=O)[C@@H](CC(C)C)N(C)C(=O)[C@H](Cc2ccccc2)NC(=O)[C@H](C(C)C)NC(=O)[C@H](C(C)C)NC1=O`, the inhibition of growth at 1 µM is 48%.
The same measure, in the same setting: to `CC(C)C[C@@H]1NC(=O)[C@H](C(C)C)NC(=O)[C@H](CC(C)C)N(C)C(=O)[C@H](CC(C)C)N(C)C(=O)[C@H](Cc2ccccc2)NC1=O` belongs 57%.
Turning to `CC(C)C[C@@H]1NC(=O)[C@@H](C(C)C)N(C)C(=O)[C@H](CC(C)C)NC(=O)[C@@H](CC(C)C)NC(=O)[C@H](Cc2ccccc2)NC1=O`, the inhibition of growth at 1 µM is 0%.
Still for that read-out and setting: to `CC(C)C[C@@H]1NC(=O)[C@H](Cc2ccccc2)NC(=O)[C@H](CC(C)C)NC(=O)[C@@H](C(C)C)N(C)C(=O)[C@H](CC(C)C)NC1=O` belongs 21%; to `CC(C)C[C@@H]1NC(=O)[C@H](C(C)C)NC(=O)[C@H](CC(C)C)N(C)C(=O)[C@@H](CC(C)C)N(C)C(=O)[C@H](Cc2ccccc2)NC1=O`, 30%; to `CC(C)C[C@@H]1NC(=O)[C@H](Cc2ccccc2)NC(=O)[C@H](CC(C)C)NC(=O)[C@@H](C(C)C)NC(=O)[C@H](CCCCNC(=O)OCc2ccccc2)NC1=O` (cyclo(FLK(Cbz)[dV]L)), 3%.
Same read-out and setting: for `CC(C)C[C@@H]1NC(=O)[C@H](Cc2ccccc2)NC(=O)[C@H](CC(C)C)NC(=O)[C@@H](C(C)C)NC(=O)[C@H](CCCCN)NC1=O` (cyclo(FLK[dV]L)) the value was 18%; for `CC(C)C[C@@H]1NC(=O)[C@H](Cc2ccccc2)NC(=O)[C@H](CC(C)C)NC(=O)[C@H](C(C)C)NC(=O)[C@H](CC(C)C)NC1=O` (cyclo(FLLVL)), 10%; for `CC(C)C[C@@H]1NC(=O)[C@H](Cc2ccccc2)NC(=O)[C@H](CC(C)C)NC(=O)[C@@H](C(C)C)NC(=O)[C@H](CC(C)C)NC1=O` (cyclo(FLL[dV]L)), 48%.
Same read-out and setting: for `CC(C)C[C@@H]1NC(=O)[C@H](CC(C)C)NC(=O)[C@@H](Cc2ccc(O)cc2)NC(=O)[C@H](CC(C)C)NC(=O)[C@H](C(C)C)NC1=O` (cyclo(LLVL[dY])) the value was 60%; for `CC(C)C[C@@H]1NC(=O)[C@H](Cc2ccccc2)NC(=O)[C@H](CC(C)C)NC(=O)[C@@H](C(C)C)N(C)C(=O)[C@H](CC2CCCCC2)NC1=O` (cyclo([Cha][dNMeV]LFL)), 60%.

The subject of another experiment is HCT-15. Nature of the experiment: Growth inhibition in HCT15 cells assessed as inhibition of [3H]thymidine incorporation. The class given is functional, cell-based. The following applies: Homo sapiens.
With `CC(C)C[C@@H]1NC(=O)[C@H](Cc2ccccc2)NC(=O)[C@@H](Cc2ccccc2)N(C)C(=O)[C@H](C(C)C)NC(=O)[C@H](CC(C)C)NC1=O`, the IC50 was found to be 0.65 µM.
The same measure, in the same setting: to `CC(C)C[C@@H]1NC(=O)[C@H](Cc2ccccc2)NC(=O)[C@@H](Cc2ccccc2)NC(=O)[C@H](C(C)C)NC(=O)[C@H](CC(C)C)NC1=O` belongs 300 µM; to `CC(C)C[C@@H]1NC(=O)[C@@H](CC(C)C)N(C)C(=O)[C@H](Cc2ccccc2)NC(=O)[C@H](C(C)C)NC(=O)[C@H](C(C)C)NC1=O`, 1.2 µM.
With `CC(C)C[C@@H]1NC(=O)[C@H](Cc2ccccc2)NC(=O)[C@H](CC(C)C)NC(=O)[C@H](C(C)C)NC(=O)[C@H](CC(C)C)NC1=O` (cyclo(FLLVL)), the IC50 was found to be 21 µM.
Regarding `O=c1[nH]cc(F)c(=O)[nH]1` [FLUOROURACIL], the IC50 is 300 µM.

Another experiment deals with HCT-116. Nature of the experiment: Growth inhibition in HCT116 cells assessed as inhibition of [3H]thymidine incorporation. Type of experiment: functional, cell-based. The note with it: Homo sapiens.
`CC(C)C[C@@H]1NC(=O)[C@H](Cc2ccccc2)NC(=O)[C@@H](Cc2ccccc2)NC(=O)[C@H](C(C)C)NC(=O)[C@H](CC(C)C)NC1=O`: the IC50 is 200 µM.
Still for that read-out and setting: for `CC(C)C[C@@H]1NC(=O)[C@@H](CC(C)C)N(C)C(=O)[C@H](Cc2ccccc2)NC(=O)[C@H](C(C)C)NC(=O)[C@H](C(C)C)NC1=O` the value was 2 µM.
As for `CC(C)C[C@@H]1NC(=O)[C@H](Cc2ccccc2)NC(=O)[C@H](CC(C)C)NC(=O)[C@@H](C(C)C)N(C)C(=O)[C@H](CC2CCCCC2)NC1=O` (cyclo([Cha][dNMeV]LFL)), the IC50 was found to be 2 µM.
On the same count and under the same terms, to `O=c1[nH]cc(F)c(=O)[nH]1` [FLUOROURACIL] belongs 300 µM.
